Reference: patent US10478421B1, “Sortilin binding compounds, formulations, and uses thereof” (University of Florida, priority 2016, dated 2019)

System: McA cells
Experiment: VLDL-B100 secretion by McA cells (immuno slot blotting)
Type: cell-based, rat
Settings: for effect on VLDL-B100 secretion: increasing concentrations; for increase in VLDL-B100 secretion over the no cpd984 control: 18 h, 1% BSA/DMEM, insulin sensitive McA cells
Protocol: McArdle RH-7777 cells (McA cells) were cultured as previously described in serum containing complete Dulbecco's Modified Eagle's Medium (cDMEM). To induce insulin sensitivity, McA cells at 50-60% confluency were incubated for 18 h in serum-free media containing DMEM containing 1% (w/v) BSA (1% BSA/DMEM). Human sortilin (hsortilin) (Ser78-Asn755) with C-terminal 6-His tag was from R&D Systems, Inc., (Minneapolis, Minn.). Plasma from fasted Sprague Dawley rats (BioreclamationIVT, Westbury, N.Y.) was used to prepare VLDL apo B standards. Mouse monoclonal antibody to rat B100 was prepared in our laboratory and characterized previously. Rabbit anti-sortilin antibody was from GeneTex (GTX54854, Irvine, Calif.) or from Abcam (ab16640, Cambridge, Mass.). Rabbit anti-p-AKT (9271), rabbit anti-AKT (9272), and rabbit anti-insulin receptor β-subunit (IRβ, 3025) were from Cell Signaling Technology (Danvers, Mass.). Mouse anti-pY Platinum 4G10 was from EMD Millipore (Temecula, Calif.). (Horseradish peroxidase linked donkey anti-rabbit IgG (NA9340), sheep anti-mouse IgG (NXA931) and ECL Prime Western Blotting Detection Reagent (RPN2232) were from GE Healthcare (Buckinghamshire, UK). All other materials and reagents were essentially as described previously. Compound 98,477,898 (25)-1-methyl-N-{3-[(3-phenylpropanoyl)-amino]phenyl}pyrrolidine-2-carboxamide (cpd984) was obtained from ChemBridge Corp. (San Diego, Calif.). A stock solution of cpd984 (10 mM) was prepared in DMSO, and stored in aliquots at −20° C.
Experimental media were adjusted to 1% (v/v) protease inhibitor cocktail I (EMD Millipore) and to a salt density of 1.019 g/ml by addition of a solution of NaBr (d=1.495 g/ml). VLDL was isolated by ultracentrifugation in a L-70 Ultracentrifuge (Beckman Coulter, Inc., Fullterton, Calif.) using a 50Ti rotor (200,000×g, 18 h, 14° C.). Following centrifugation, the top 1.5-2.0 ml VLDL fraction was removed using a syringe and weighed to determine volume. VLDL samples were applied in triplicate wells (0.2-0.4 ml per well) in a Bio-Dot® SF apparatus (Bio-Rad). Two PVDF membranes were used together for blotting: the top was Immobilon-P (IPVH09120 SF) and the bottom was Immobilin-PSQ (ISEQ09120 SF); both were obtained from EMD Millipore. VLDL apo B standards were prepared from rat plasma VLDL and total apo B (B100 and B48) and B100 content were determined on stained gels following SDS-PAGE separation. VLDL-apo B standards in TBS were slotted in duplicate alongside test samples. After filtration, 0.4 ml of TBS was added as a wash. […] At this stage slot blots were evaluated similarly to immunoblotting. After chemiluminescence development and B100 quantitation, slot blots were stripped by incubation in Restore™ PLUS for 15 min at room temperature (Thermo Scientific, Rockford, Ill.) and were reblocked overnight at 4° C. Total apo B (B100 and B48) present in VLDL was then evaluated following incubation with rabbit polyclonal anti-rat apo B. The bottom PVDF membrane was carried through the entire procedure to assure there was no “bleed through” of test samples. VLDL-apo B and VLDL-B100 content were calculated from standard curves generated by VLDL apo B standards. […]
McArdle rat hepatocytes were incubated with increasing concentrations of cpd984 or cpd541 for 14-18 h and media were collected. […] Binding was detected by chemiluminescence detection and quantified using Bio-Rad software. […]

SMILES	effect on VLDL-B100 secretion (14-18 h)	increase in VLDL-B100 secretion over the no cpd984 control (10 μM) [%]	increase in VLDL-B100 secretion over the no cpd984 control (25 μM) [%]	effect of 984 on VLDL-B100 and VLDL-apoE secretion when given in combination with 541 (combination of both compounds, 0.1-25 μM, 14-18 h)
CC(NC(=O)c1ccccc1NCC(=O)O)c1ccccc1 (centres unmarked) [cpd541]	decreases VLDL-B100 secretion	–	–	–
CN1CCC[C@H]1C(=O)Nc1cccc(NC(=O)CCc2ccccc2)c1 [cpd984, (2S)-1-methyl-N-{3-[(3-phenylpropanoyl)-amino]phenyl} pyrrolidine-2-carboxamide]	increases VLDL-B100 secretion	30	61	abrogated
